This note sets out measurements from paper PMC12040169 (PLOS Biology, 2025).

The series can be described thus: in vitro. The following applies: human, hela cells, % viability.
Turning to `NS(=O)(=O)c1ccc(NC(=S)N2CCN(CCO)CC2)cc1` [CBK265891], the viability at 28.5 h, 10 µM is 87.5%. The figure for `Cc1cc(C)c2c(n1)nn1c(C)c(CCC(=O)O)c(C)nc21` [CBK265892] is 98.2%. The figure for `O=C(Nc1ccc(Br)c2cccnc12)c1ccc(Cn2cc(Cl)cn2)o1` [CBK265893] is 88.2%. The figure for `COc1ccc(C(=O)Nc2ccccc2C(=O)Nc2cccc([N+](=O)[O-])c2)cc1` [CBK265894] is 101%.

Consider `NC(=O)C1(N2CCCCC2)CCN(Cc2nc(O)c3ccccc3n2)CC1` [CBK265896], for which the viability at 28.5 h, 10 µM is 103%. The figure for `O=C(Nc1ccccc1)c1ccc(COc2ccc3ccccc3c2)o1` [CBK265897] is 113%.

On to `Cn1c(Cc2cccc3ccccc23)nnc1SCc1ccc([N+](=O)[O-])cc1` [CBK265898], for which the viability at 28.5 h, 10 µM came to 93.6%. In the case of `CC(=O)Nc1cccc(NC(=O)c2cccc(Cn3cc(Cl)cn3)c2)c1` [CBK265899] it was 90.5%.

Turning to `O=C(CSc1n[nH]c(-c2ccccc2Cl)n1)Nc1ccccc1F` [CBK265901], the viability at 28.5 h, 10 µM turned out to be 82.9%. In the case of `O=C(Nc1ccccc1-c1ccccc1)C1CN(S(=O)(=O)c2ccccc2)CCN1S(=O)(=O)c1ccccc1` (stereo not shown) [CBK265902] it was 91.1%; in that of `Cc1cccc(C(=O)Nc2ccccc2C(=O)Nc2cccc(C(=O)O)c2C)c1` [CBK265911], 99.4%; in that of `O=C1C2(c3ccccc3)CN(CCCO)CC1(c1ccccc1)CN(CCCO)C2` [CBK265912], 109%. In the case of `CC(C)NS(=O)(=O)c1ccc(OCC(=O)Nc2ccc3c(c2)OCCO3)cc1` [CBK265915] it was 106%; in that of `CCOC(=O)Cn1c(CCC(=O)O)ccc1-c1ccc(F)cc1` [CBK265916], 97.8%; in that of `CCOC(=O)c1c(-c2ccc(C)o2)csc1NC(=O)CN1CCCCC1C` (stereo not shown) [CBK265917], 105%. The figure for `COC(=O)c1c(C)[nH]c(C(=O)CSc2ncnc3scc(-c4ccccc4)c23)c1C` [CBK265918] is 95.5%; for `Cc1nnc(SCC(=O)N2c3ccccc3Sc3ccccc32)n1N` [CBK265920] it is 96.5%. In the case of `COc1ccc(S(=O)(=O)N(C)CC(=O)Nc2ccc(S(N)(=O)=O)cc2)cc1` [CBK265922], the viability at 28.5 h, 10 µM is 102%. Consider `CCCn1nnc(NC(=O)COc2ccc3ccccc3c2)n1` [CBK265923], for which the viability at 28.5 h, 10 µM amounted to 101%. For `NC1=C(c2nc3ccccc3s2)C(=O)CN1CCCN1CCOCC1` [CBK265925], the viability at 28.5 h, 10 µM stood at 109%. The figure for `COc1ccc(-c2ccc(CCC(=O)O)n2CCc2ccccc2)cc1` [CBK265929] is 115%; for `NC(=O)C1CCN(C(=O)CSc2nc3ccccc3o2)CC1` [CBK265930] it is 97.8%; for `Cc1ccc(NC(=O)Cn2cnc3sc(C(=O)Nc4ccccc4)c(C)c3c2=O)cc1` [CBK265931] it is 101%. On to `Cc1cc(C)cc(N(CC(=O)Nc2ccccc2-c2ccccc2)S(=O)(=O)c2ccccc2)c1` [CBK265933], for which the viability at 28.5 h, 10 µM is 92.4%.

As for `O=C(O)CCc1ccc(-c2ccc(F)cc2)n1CCc1ccccc1` [CBK265936], the viability at 28.5 h, 10 µM is 108%. The figure for `O=C(CSc1ncccn1)Nc1sc2c(c1C(=O)Nc1ccccc1)CCCC2` [CBK265939] is 93%; for `Cn1c(=O)c2c(nc(Oc3ccccc3Cl)n2Cc2cccc(C(F)(F)F)c2)n(C)c1=O` [CBK265940] it is 89.7%. Take `NC(=S)Nn1c(CCC(=O)O)ccc1-c1ccccc1` [CBK265942]: the viability at 28.5 h, 10 µM amounted to 100%. In the case of `Cc1nc(SCC(=O)N2CCC(C)CC2)c2c3c(sc2n1)CCC3` [CBK265944] it was 86.1%. In the case of `COc1cc(CO)cc(I)c1OCC(=O)Nc1ccccc1` [CBK265950] it was 112%.

For the compound `OCCOCCNc1ncnc2sc(-c3ccccc3)cc12` [CBK265951], the viability at 28.5 h, 10 µM was 76%.

As usually defined, the viability is a read-out of living cells in per cent, often relative to untreated cells.
